Residues, ends and D or L forms follow the SMILES beside them.
Row | Structure (SMILES) | melting point
1 | CN1C(=O)c2cscc2Nc2ccccc21 | 195 to 198 °C
2 | Clc1ccc(C2=CCCc3cc(Cl)c(Cl)cc32)cc1 | 106 to 108 °C
3 | O[C@@H](CNCCOc1ccc2oc(-c3ccon3)cc2c1)COc1ccccc1Cl | 93 to 96 °C
4 | CCOC(=O)CCc1cn(Cc2cc(OCc3ccccc3)cc(OCc3csc(-c4cnccn4)n3)c2)cc1-c1ccccc1 | 126 to 127 °C
5 | Oc1nnc2ccc3ccccc3n12 | 134 °C
6 | Oc1c(C23CC4CC(CC(C4)C2)C3)ccc2ccccc12 | 209 to 210 °C
7 | Cc1nonc1-n1cc(C(=O)O)c(=O)c2c(C)c(F)c(F)cc21 | 200 to 202 °C
8 | CCOC(=O)C(=CNc1ccc(F)c(F)c1OCC1CN(Cc2ccccc2)CCN1Cc1ccccc1)C(=O)OCC (configuration not stated) | 109 to 110 °C
9 | C=C(C)CO[C@H]1[C@H](C)OC(=O)[C@@H](NC(=O)c2nccc(OC)c2OCc2ccccc2)COC(=O)[C@@H]1Cc1ccccc1 | 50 to 52 °C
10 | COc1ccc(-c2nc3cc(F)ccc3s2)cc1OC(=O)c1ccccc1 | 160 °C
11 | Cc1nc2c(c3c1[nH]c1cc(F)ccc13)C(=O)CC(C(C)C)C2 (configuration not stated) | 285 to 286 °C
12 | C[C@H](N)C(=O)N1CCC[C@H]1C(=O)O (H-Ala-Pro-OH) | 106 to 132 °C
13 | CCN1CCc2c(c(Br)cc([N+](=O)[O-])c2NC(C)=O)C1 | 168 °C
14 | c1ccc2[nH]c(SSCCSSc3nc4ccccc4[nH]3)nc2c1 | 190 to 192 °C
15 | CC(C)(C)OC(=O)C1CC(c2ccc(N)cc2)CCN1 (configuration not stated) | 114 to 116 °C
16 | CCC(=O)C(O)(Cc1ccc(C)cc1)c1ccc(N2CCOCC2)cc1 (configuration not stated) | 160 °C
17 | C[C@@H](N)CNc1ccnc2cc(Cl)ccc12 | 145 °C
18 | O=c1[nH]c(COc2ccc(Cl)cc2)nc2nccnc12 | 267 to 269 °C
19 | N#Cc1ccc(CCc2ccc(OCc3ccc4ccccc4n3)cc2)cc1 | 156 to 158 °C
20 | O=C1C(CCO)Oc2ccccc2N1Cc1cc(Cl)cc(Cl)c1 (configuration not stated) | 104 to 106 °C
21 | O=C(O)Cc1ccc(N2CC3CCCCC3C2=O)cc1 (configuration not stated) | 157 to 159 °C
22 | O=C1NC(=O)C(Cc2cccs2)N1 (configuration not stated) | 188 to 190 °C
23 | CCOC(=O)C(=CNc1ccnc(-c2ccccn2)n1)C(=O)OCC | 162 to 164 °C
24 | Cc1sc(N2C(=O)c3ccccc3C2=O)c(C(=O)c2ccc(Cl)cc2)c1CN1CCN(c2ccc(F)cc2)CC1 | 110 to 112 °C
25 | COn1cc(C#N)c(C#N)c1-c1ccc(Cl)cc1 | 126 to 127 °C
26 | CCOc1cc(-c2cc(C(F)F)n3ncc(C(=O)Nc4cccc(S(N)(=O)=O)c4)c3n2)ccc1C(F)(F)F | 254 °C

Row | Structure (SMILES) | melting point
27 | Nc1c(Cl)cc(C(O)CNCCCCCC(=O)OCCc2cccc3ccccc23)cc1Cl (configuration not stated) | 60 to 61 °C
28 | N#Cc1nn(-c2c(Cl)cc(C(F)(F)F)cc2Cl)cc1C#CBr | 166 to 168 °C
29 | COP(=O)(Cc1ccc([N+](=O)[O-])c2ccccc12)OC | 128 to 129 °C
30 | CCNCCNC(=O)c1ccnc(F)c1 | 51 to 52 °C
31 | CNC(=O)C1CCCN1S(=O)(=O)c1ccc(N2CCC(NC[C@H](O)COc3cccc4[nH]c(=O)[nH]c34)CC2)cc1 (some centres not stated) | 36 to 39 °C
32 | COc1ccc(-c2nn3c(N4CCCC4)nnc3c3ccccc23)cc1 | 196 to 198 °C
33 | COc1ccc(CCc2ccc(-c3ccc(OC(F)F)cc3)cc2)cc1 | 153 °C
34 | Cc1c(-c2ccc(N(C)C)nn2)ssc1=S | 216 °C
35 | Cc1ccc(NC#N)c(-c2ccccc2)c1 | 80 °C
36 | COC(=O)c1cc(-c2ccc(S(C)(=O)=O)cc2)n(-c2ccc(F)cc2)c1C | 154 to 155 °C
37 | CC12CCC(=O)C=C1CCC1C2CCC2(C)C(OC(=O)CBr)CCC12 (configuration not stated) | 144 to 145 °C
38 | CCCCc1nc(C(=O)O)c(Sc2ccc(OC)cc2)n1Cc1cc2c(cc1Cl)OCO2 | 82 °C
39 | CCn1cc(CN(C(=O)C2CCCc3c(O)cccc32)c2ccc(C(C)C)nc2)cn1 (configuration not stated) | 173 °C
40 | CCC(=O)Nc1ccc(C(=O)c2nc(-c3cccc(C(=O)O)c3)c3ccccn23)cc1OC | 145 °C
41 | CC(C)(C)c1cc(C(=O)NC2CCCCC2)cc(C(C)(C)C)c1O | 236 to 237 °C
42 | CSC1N=C(N)C=C(Cl)N1c1c([N+](=O)[O-])cc(C(F)(F)F)c(Cl)c1[N+](=O)[O-] (configuration not stated) | 171 to 175 °C
43 | Cc1cc(O)c(CCN(C)C)c(C)c1C | 72 °C
44 | N#CN=C(Nc1ccc([N+](=O)[O-])cc1O)Nc1ccccc1Cl | 163 to 164 °C
45 | Cc1csc(C)c1C(=O)O | 164 to 165 °C
46 | Cc1ccc(CNc2nc(Nc3cccc(N4CCOCC4)c3)nc(OCC(F)(F)F)n2)o1 | 130 to 134 °C
47 | Clc1nc(Cl)nc(NNc2nc(Cl)nc(Cl)n2)n1 | > 250 °C
48 | O=C(O)C1=Cc2cc(Cl)cc(-c3ccc(Cl)cc3)c2OC1C(F)(F)F (configuration not stated) | 206 to 207 °C
49 | CC(C)N(C(=O)CCCCCC(=O)O)c1ccccc1 | 62 to 63 °C
50 | FC(F)(F)c1nnc2c3cc(Cl)ccc3ccn12 | 228 °C
51 | CC(C)CC(CO)NC(=O)OCC1c2ccccc2-c2ccccc21 (configuration not stated) | 131 to 133 °C
52 | CC(C)(C)c1cc(-c2ccc(NC(=O)COCC(=O)O)cc2)cc(C(C)(C)C)c1O | 183 to 184 °C

Row | Structure (SMILES) | melting point
53 | CCOc1cc(C2CSCCC2=O)ccc1OC (configuration not stated) | 108 to 110 °C
54 | CCCCn1c(=O)c2c(nc(C)n2S(=O)(=O)c2ccc(C)cc2)n(CCCC)c1=O | 111 to 113 °C
55 | Oc1cccc2ccc3cccnc3c12 | 104 °C
56 | Nc1ccn(C[C@@H]2O[C@H](CO)[C@@H](O)[C@@H]2O)c(=O)n1 | 230 to 232 °C
57 | O=[N+]([O-])c1ccc(NS(=O)(=O)c2cc(Cl)c(Cl)cc2Cl)c(Cl)c1 | 177 to 179 °C
58 | CC(C)=CCNC(=O)CCC(NC(=O)C=Cc1ccco1)C(=O)NCC=C(C)C (configuration not stated) | 199 to 203 °C
59 | O=C1NCCCN2c3ccccc3CC12 (configuration not stated) | 159 °C
60 | CP(C)(=O)C(O)C(=O)OCC(=O)c1ccccc1 (configuration not stated) | 147 °C
61 | CCOC(=O)C1=C(O)C(=O)NCC1 | 142 to 148 °C
62 | CCCCc1ncc(/C(C)=C(\Cc2ccccc2)C(=O)O)n1Cc1ccccc1Cl | 206 to 207 °C
63 | Cc1oc(-c2ccccc2)nc1COc1cccc(C=CC=Cc2nnn[nH]2)c1 | 201 to 202 °C
64 | Cc1c(NC(=O)c2cc3c(s2)C(O)CCC3)cccc1-c1cn(C)c(=O)c(Nc2ccc(C3C(=O)N(C)CCN3C)cc2)n1 (configuration not stated) | 165 to 166 °C
65 | Cc1cnn(-c2ccc(C(=O)N3Cc4cccn4Cc4ccccc43)cc2)c1 | 179 to 181 °C
66 | c1c2c(cc3c1OCO3)CCNCC2 | 82 to 84 °C
67 | CCOC(=O)[C@H]1O[C@@H]1C(=O)N[C@H](CNC(=O)c1ccccc1)CC(C)C | 126 to 129 °C
68 | COC(=O)C1=C(CF)NC(C)=C(C(=O)OC(C)C)C1c1cccc(OC)c1OC (configuration not stated) | 89 to 91 °C
69 | CNS(=O)(=O)CCc1ccc(N)cc1 | 101 to 105 °C
70 | COc1cc(Nc2nccc(Nc3ccccc3)n2)cc(OC)c1OC | 186 °C
71 | CCCc1ccc2oc(C(=O)c3ccncc3)c(C)c2c1O | 203 to 205 °C
72 | O=C(O)c1ccc(CCCc2ccccc2CCc2ccccc2)cc1 | 97 to 98 °C
73 | CC(C)(C)OC(=O)C(F)=CC1C(C(=O)OC(C#N)c2ccc(F)c(Oc3ccccc3)c2)C1(C)C (configuration not stated) | 122 °C
74 | Nc1c(Cl)cc(C(=O)NCCC23CCCN2CCC3)c2c1CCO2 | 124 °C
75 | CC(Cn1ccc(-c2ccccc2)n1)C(=O)N(C)C (configuration not stated) | 68 to 71 °C
76 | Cc1cc(S(=O)(=O)NCc2ccccc2)c2c(C)ccc(C(C)C)cc1-2 | 124 to 126 °C
77 | Nc1ccc(C(=O)OC2CCN(Cc3ccccc3)CC2)cn1 | 135 to 136 °C
78 | O=C(NCc1ccc([N+](=O)[O-])cc1)c1ccc2cccnc2c1O | 210 to 212 °C

Row | Structure (SMILES) | melting point
79 | CC(=O)Oc1ccc(C)cc1[C@H](CCN(C(C)C)C(C)C)c1ccccc1 | 126 to 130 °C
80 | Cc1[nH]cnc1CSCCNc1[nH]cc(Cc2ccccc2)c1[N+](=O)[O-] | 192 to 193 °C
81 | CC(=O)c1nc2ccc(Oc3ccccc3)cc2cc1O | 131 to 133 °C
82 | Cc1cccc(NC(=O)c2ccccc2)c1Cl | 125 to 126 °C
83 | COc1cc2nc(N3CCN(C(=O)C4CCCCC4)CC3)nc(N)c2cc1OC | 223 to 225 °C
84 | CC(C)(C)OC(=O)Nc1cc(OCC2COC(C)(C)O2)c(C#Cc2ccccc2)cc1NC(=O)CC(=O)c1cccc(C#N)c1 (configuration not stated) | 132 to 134 °C
85 | Cc1cc(-n2ccnc2)c2cccc(OCc3c(Cl)ccc(S(=O)(=O)N4CCC[C@H]4C(N)=O)c3Cl)c2n1 | 110 °C
86 | Nc1ccc(NNC(=O)c2ccccc2)cc1 | 134 to 136 °C
87 | O=C1N[C@H](C(=O)NCCCCO[N+](=O)[O-])CS1 | 68 to 70 °C
88 | CC(C)(C)OC(=O)N1CCCC(c2ccc3c(c2)C2(CO3)C(=O)Nc3ccccc32)C1 (configuration not stated) | 120 to 123 °C
89 | CNC(=O)c1c(-c2ccccc2)noc1C=C(N)c1ccccc1 | 181 to 183 °C
90 | Cc1cccc(C(O)CNC(N)=C(CCSCc2cc(C)c(CN(C)C)s2)[N+](=O)[O-])c1 (configuration not stated) | 88 to 89 °C
91 | CONCc1nc2cnc3ccccc3c2n1CC1CCOCC1 | 58 to 63 °C
92 | CC1=NC(NC(=O)Nc2cccc(C)c2)C(=O)N(CC(=O)N(C)c2ccccn2)c2c(C)cccc21 (configuration not stated) | 222 to 224 °C
93 | O=C(O)COc1cc(Cl)ccc1C(=O)NCc1cccc([N+](=O)[O-])c1 | 200 °C
94 | COc1ccc2c(c1)C(=O)c1c-2c(Cl)nc2ccccc12 | 227 to 228 °C
95 | COc1cc(NS(C)(=O)=O)c(I)cc1N | 110 to 112 °C
96 | CNC(=O)CNC(=O)CN1CCCC1=O | 139 to 140 °C
97 | CN1CCC(Oc2ccccc2N)(c2ccccc2)CC1 | 129 to 130 °C
98 | O=C(O)Cn1c(=O)n(Cc2ccc(Br)cc2F)c(=O)c2ccc(Br)cc21 | 217 °C
99 | N#CC(C=O)c1ccccc1 (configuration not stated) | 161 to 163 °C
100 | CCCCOc1cc(CCC(=O)O)ccc1CCCc1ccc(OCCCC)c(OC)c1 | 64 °C
101 | CSc1ccc(-c2c(Br)cnn2-c2ccc(F)cc2)cc1 | 85 to 87 °C
102 | CCSc1nc(-c2ccc(OC)cc2)c(-c2ccc(OC)cc2)s1 | 73 to 75 °C
